In patent US7582653B2, “Mercaptophenyl naphthyl methane compounds and synthesis thereof” (Council of Scientific & Industrial Research, priority 2003, dated 2009):
Blank lines part the entries; values can stand above or below the compound they belong to.

Columns and labels:
[1] = tested on: chick fetal bones in culture; assay: Inhibition of PTH-induced resorption of 45Ca from chick fetal bones in culture (antiresorptive activity in vitro); type: cell-based; details: for T/C Ratio: PTH-induced 45Ca resorption, 96 h culture
Protocol: Test Procedure for Evaluation of Antiosteoporosis (Antiresorptive) Activity in Vitro:
Test solutions of the compounds of the present invention are prepared in appropriate solvents in concentration range of 5 millimolar to 400 millimolar, most preferably in concentrations of 20 millimolar. 5 μl of each concentration are used for evaluation of antiresorptive activity in vitro. In control experiments, 5 μl of appropriate solvent is used in lieu of test compound. Femur bones are isolated from chick embryos on day 11 post-ovulation. The adhering soft connective tissue is completely removed. Each femur bone is then placed in a drop of phosphate buffered saline (PBS) and is transferred to BGJb culture medium containing ^45CaCl2 and incubated for 2 h. Labeled femur bones are washed 2-3 times with PBS and transferred to BGJb medium containing parathyroid hormone and cultured for 96 h in the presence or absence of the compound of invention or the vehicle in BGJb medium. Contralateral femur of each fetus serves as corresponding control. Culture medium with the respective treatment in each well is changed after 48 h. On termination of the culture at 96 h, bones are transferred to 0.1 N HCl for 24 h. Radioactivity due to ^45Ca in the spent medium collected at 48 and 96 h of culture and HCl extract at 96 h of culture is quantified by Liquid Scintillation Spectrophotometer in 10 ml of the scintillation fluid. Bone resorbing activity is expressed as percentage of ^45Ca released into the culture medium and the effect of the compound of invention as percent of the corresponding contra-lateral control or T/C ratio as shown below:
Appropriate solvents are selected from solvents like water, normal saline, phosphate buffered saline, phosphate buffer, DMSO alone or in a suitable combination thereof.
It was devoid of any pos-coital antifertility and estrogenic activities in rats.

[2] = tested on: retired breeder OVX rats; assay: Estrogen agonistic activity: uterine weight and morphometry in retired breeder OVX rats; type: in vivo, rat
Protocol: (§1) The in vivo antiosteoporosis activity is evaluated in colony-bred adult (3-4 month old) female Sprague-Dawley rats or female retired breeder Sprague-Dawley rats ([…]; parity≧3). Animals are bilaterally ovariectomized (OVX) under light ether anesthesia and treated with the compound of the present invention, 17-alfa-ethynylestradiol (EE) or the vehicle once daily on days 1-30 post-ovariectomy (day 1: day of bilateral ovariectomy) by the oral route. One group consisting of females is sham operated and treated similarly with the vehicle. Animals of all the groups are autopsied 24 h after the last treatment. Before autopsy, 24 h fasting urine samples are collected in fresh containers using all-glass metabolic cages and stored at −20° C. until analyzed for calcium, phosphorus and creatinine. At autopsy, about 5 ml blood samples are collected by cardiac puncture from each rat under light ether anesthesia and serum is isolated and stored at −20° C. until analyzed for total and bone specific alkaline phosphatase, osteocalcin and calcium. Uterus of each rat is carefully excised, gently blotted, weighed and fixed for histology. Representative sections (5 μm) from each uterus are stained with haematoxylin and eosin. Femur and tibia of each rat are then dissected free of adhering tissue, fixed in 70% ethanol in physiological saline and stored at −20° C. until Bone Mineral Density (BMD) measurement. Before autopsy, whole body scan of each rat for measurement of BMD is performed on an Hologic QDR-4500A fan-beam densitometer, calibrated daily with Hologic hydroxyapatite anthropomorphic spine phantom using manufacturer provided software for small animals. BMD measurement of isolated bones is performed using identical regions of interest. Serum total alkaline phosphatase, osteocalcin, calcium ion content and urinary calcium and creatinine are estimated colorimetrically using commercial kits (Table 2).
(§2) For image analysis in estrogen agonistic activity evaluation studies, paraffin sections (6 μm thick) of the uterus stained with haematoxylin and eosin were analyzed microscopically. To determine changes in uterine tissue components, areas of whole uterus and endometrium and the thickness of uterine epithelium were measured using a computer-image analysis system (BioVis, Expert Vision, India). Briefly, microscopic images of uterus acquired through a CCD camera were loaded in to the image analysis program and spatially calibrated against a stage micrometer image taken at the same magnification. Using thresholding and line tools, the regions for measurements were selected and the area (mm^2) of whole uterine transection excluding the luminal space, the area (mm^2) of the endometrium only, and the thickness (μm) of luminal epithelial lining were measured. Luminal epithelial thickness data was the average of measurements made at 6 randomly selected sites of the lining (Table 7).

[3] = tested on: ovariectomized (OVX) female Sprague-Dawley rats; assay: Anti-hyperlipidaemic activity: blood serum total cholesterol in OVX rats; type: in vivo, rat; details: days 1-30; for Total Cholesterol: blood serum
Protocol: Test Procedure for Evaluation of Anti-Hyperlipidaemic Activity:
The in vivo anti-hyperlipidaemic activity is evaluated in colony-bred adult (3-4 month old) female Sprague-Dawley rats or female retired breeder Sprague-Dawley rats ([…]; parity≧3). Animals are bilaterally ovariectomized (OVX) under light ether anesthesia and treated with the compound of the present invention, 17-alfa-ethynylestradiol (EE) or the vehicle once daily on days 1-30 post-ovariectomy (day 1: day of bilateral ovariectomy) by the oral route. One group consisting of females is sham operated and treated similarly with the vehicle. Animals of all the groups are autopsied 24 h after the last treatment. At autopsy, about 5 ml blood samples are collected by cardiac puncture from each rat under light ether anesthesia and serum is isolated and stored at −20° C. until analyzed for total cholesterol. The total cholesterol concentration is measured by a timed-end point method using a Beckman Synchron CX autoanalyser. In the reaction, cholesterol estrase hydrolyses cholesterol esters to free cholesterol and fatty acids. Free cholesterol is oxidized to cholestene-3-one and H2O2 by cholesterol oxidase. Peroxidase catalyses the reaction of H2O2 with 4-amino antipyrine and phenol to produce a colored quinoneimine product. Absorbance is recorded at 520 nm (Table 3).

[4] = tested on: immature OVX rats; assay: Estrogen agonistic activity: uterine weight and morphometry in immature OVX rats; type: in vivo, rat
Protocol: Test Procedure for Evaluation of Estrogen Agonistic Activity:
Twenty-one-day-old immature female rats are bilaterally ovariectomized under light ether anesthesia and, after post-operative rest for 7 days, are randomized into different treatment groups. Each rat receives the compound of the invention once daily for 3 consecutive days on days 28-30 of age. A separate group consisting of animals receiving only the vehicle for similar duration serves as control. At autopsy 24 h after the last treatment on day 31 of age, vaginal smear of each rat is taken and uterus is carefully excised, gently blotted, weighed and fixed for histology and histomorphometry using image analysis. Premature opening of vagina, cornification of vaginal epithelium, increase in uterine fresh weight, total uterine and endometrial area and uterine luminal epithelial cell height are taken as parameters for evaluation of estrogen agonistic activity in comparison to rats of vehicle control group (Table 6).
as §2

[5] = tested on: ovariectomized (OVX) female Sprague-Dawley rats; assay: Antiosteoporosis activity in vivo: bone mineral density in ovariectomized rats; set-up: species or system rat; details: oral once daily days 1-30 post-ovariectomy
Protocol: Test Procedure for Evaluation of Antiosteoporosis Activity in Vivo:
as §1

[6] = tested on: immature OVX rats; assay: Estrogen antagonistic activity: inhibition of EE-induced uterine weight gain in immature OVX rats; type: in vivo, rat; details: daily dose 10 mg/kg with 0.02 mg/kg 17-alfa-ethynylestradiol, 3 days
Protocol: Test Procedure for Evaluation of Estrogen Antagonistic Activity:
Twenty-one-day-old immature female rats are bilaterally ovariectomized under light ether anesthesia and after post-operative rest for 7 days, are randomized into different treatment groups. Each rat receives the compounds of the invention and 0.02 mg/kg dose of 17-alfa-ethynylestradiol in 10% ethanol-distilled water once daily for 3 consecutive days on days 28-30 of age. A separate group consisting of animals receiving only 17-alfa-ethynylestradiol (0.02 mg/kg) in 10% ethanol-distilled water for similar duration are used for comparison. At autopsy on day 31 of age, vaginal smear of each rat is taken and uterus is carefully excised, gently blotted, weighed and fixed for histology and histomorphometry using image analysis. Inhibition in 17-alfa-ethynylestradiol-induced premature opening of vagina, cornification of vaginal epithelium, increase in uterine fresh weight, total uterine and endometrial area and uterine luminal epithelial cell height are taken as parameters for evaluation of estrogen antagonistic activity (Table 8).

[7] = tested on: MCF-7 cells; assay: Antiproliferative/cytotoxic activity in cultured MCF-7 cells (SRB assay); details: 48 h incubation

Structure (SMILES): CCSc1ccc(C(=O)c2cccc3ccccc23)cc1 [Example 11, (4-Ethylthiophenyl)-naphth-1-yl-ketone]
T/C Ratio ([1]; 100 μM): 0.77

Structure (SMILES): C#C[C@]1(O)CC[C@H]2[C@@H]3CCc4cc(O)ccc4[C@H]3CC[C@@]21C [EE, 17-alfa-ethynylestradiol, reference compound]
Endometrium Epithelial Cell Height ([2]; daily dose 0.5 mg/kg): 46.36 μm
Endometrium Total Area ([2]; daily dose 0.5 mg/kg): 4.07 mm^2
Increase in uterine weight: Percent of OVX + vehicle treatment group, Percent Increase ([2]; daily dose 0.5 mg/kg): 260%
Uterus Total Area ([2]; daily dose 0.5 mg/kg): 6.86 Mm^2
Total Cholesterol ([3]; daily dose 0.50 mg/kg oral): <5 mg/dL
Endometrium Epithelial Cell Height ([4]; daily dose 0.01 mg/kg): 33.65 μm
Endometrium Total Area ([4]; daily dose 0.01 mg/kg): 0.57 mm^2
Increase in uterine weight: Percent of OVX + vehicle treatment group, Percent Increase ([4]; daily dose 0.01 mg/kg): 419%
Uterus Total Area ([4]; daily dose 0.01 mg/kg): 1.21 Mm^2
Increase in BMD (g/cm^2): Percent of OVX + vehicle treatment group, Percent Increase ([5]; Femur Global): 16.1%
Increase in BMD (g/cm^2): Percent of OVX + vehicle treatment group, Percent Increase ([5]; Femur Neck): 13.5%
Increase in BMD (g/cm^2): Percent of OVX + vehicle treatment group, Percent Increase ([5]; Tibia Global): 3.8%
Increase in BMD (g/cm^2): Percent of OVX + vehicle treatment group, Percent Increase ([5]; Tibia proximal): 25.2%

Structure (SMILES): O=C(c1ccc(OCCN2CCCCC2)cc1)c1c(-c2ccc(O)cc2)sc2cc(O)ccc12 [Raloxifene, reference compound]
T/C ([1]; chick foetal bone assay, concentration not stated): 0.6

Structure (SMILES): CSc1ccc(C(=O)c2cccc3ccccc23)cc1 [Example 1, (4-Methylthiophenyl)-(naphth-1-yl)-ketone]
Endometrium Epithelial Cell Height ([2]; daily dose 10 mg/kg): 9.63 μm
Endometrium Total Area ([2]; daily dose 10 mg/kg): 0.37 mm^2
Increase in uterine weight: Percent of OVX + vehicle treatment group, Percent Increase ([2]; daily dose 10 mg/kg): 41%
Uterus Total Area ([2]; daily dose 10 mg/kg): 1.38 Mm^2
Total Cholesterol ([3]; daily dose 10 mg/kg oral): 20.00 mg/dL
% Change in blood serum total cholesterol concentration ([3]; daily dose 10 mg/kg oral): 21.94%
Endometrium Epithelial Cell Height ([4]; daily dose 10 mg/kg): 7.16 μm
Endometrium Total Area ([4]; daily dose 10 mg/kg): 0.085 mm^2
Increase in uterine weight: Percent of OVX + vehicle treatment group, Percent Increase ([4]; daily dose 10 mg/kg): 16%
Uterus Total Area ([4]; daily dose 10 mg/kg): 0.105 Mm^2
Percent inhibition in EE induced uterine weight gain [6]: 32%
T/C Ratio ([1]; 25 μM): 0.77
T/C Ratio ([1]; 50 μM): 0.60
T/C Ratio ([1]; 100 μM): 0.44
LC50 [7]: Inactive
Increase in BMD (g/cm^2): Percent of OVX + vehicle treatment group, Percent Increase ([5]; Femur Global): 8%
Increase in BMD (g/cm^2): Percent of OVX + vehicle treatment group, Percent Increase ([5]; Femur Neck): 13%
Increase in BMD (g/cm^2): Percent of OVX + vehicle treatment group, Percent Increase ([5]; Tibia Global): 3.7%
Increase in BMD (g/cm^2): Percent of OVX + vehicle treatment group, Percent Increase ([5]; Tibia proximal): 13.8%

The next lines start with results.

melting point: 80 °C
Structure (SMILES): CSc1ccc(C(O)c2cccc3ccccc23)cc1 (stereo not drawn) [Example 3, (4-Methylthiophenyl)-naphth-1-yl-carbinol]
T/C Ratio ([1]; 50 μM): 1.41

melting point: 160 °C
Structure (SMILES): CS(=O)(=O)c1ccc(C(O)c2cccc3ccccc23)cc1 (stereo not drawn) [Example 4, (4-Methylsulfonylphenyl)-naphth-1-yl-carbinol]
T/C Ratio ([1]; 100 μM): 0.97

melting point: 150 °C
Structure (SMILES): CS(=O)(=O)c1ccc(C(=O)c2cccc3ccccc23)cc1 [Example 2, (4-Methylsulfonylphenyl)-naphth-1-yl-ketone]

melting point: 160 °C
Structure (SMILES): CS(=O)(=O)c1ccc(C(=O)c2ccc3ccccc3c2)cc1 [Example 8, (4-Methylsulfonylphenyl)-naphth-2-yl-ketone]

melting point: 100 °C
Structure (SMILES): CS(=O)(=O)c1ccc(C(O)c2ccc3ccccc3c2)cc1 (stereo not drawn) [Example 9, (4-Methylsulfonylphenyl)-naphth-2-yl-carbinol]
T/C Ratio ([1]; 100 μM): 1.15
